Test results: patent US20260242359A1, “IRHOM2 INHIBITORS AND USES THEREOF” (NEW YORK SOCIETY FOR THE RELIEF OF THE RUPTURED AND …, priority 2023, published 2026)

Tests used:
Format in all cases: cell-based
[1] = tested on: PMA-stimulated TGFα release from HEK-293 cells (substrate of iRhom1/ADAM17 and iRhom2/ADAM17); experiment: Counter screen (Example 4a): PMA-stimulated TGFα release from HEK-293 cells, AP readout; details: Homo sapiens, HEK293, HEK-293 cells expressing TGFα-AP, PMA 100 ng/mL, 2 h, read-out: Counter Screen XC50 TGFα
Protocol: A tertiary counterscreen was also performed to monitor the release of TGFα, which is a substrate of iRhom1/ADAM17 and iRhom2/ADAM17, so its release should not be blocked by an iRhom2-selective inhibitor (Maretzky T et al. (July 2013), “iRhom2 controls the substrate selectivity of stimulated ADAM117-dependent ectodomain shedding”, PNAS 110(28): 11433-11438; and Li X et al. (May 2015), “iRhoms 1 and 2 are essential upstream regulators of ADAM17-dependent EGFR signaling”, PNAS 112(19): 6080-6085).
(§1) First, expression plasmids for alkaline phosphatase (AP)-fused KL2 and TGFα were designed and generated through gene synthesis followed by subcloning into the pcDNA3.1(+)/Hygro expression vector. […] During cell culturing, cell density and viability were monitored to ensure optimal conditions for the transfections. After PMA stimulation, AP-coupled KL2 or TGFα were detected by measurement of AP activity in the supernatant. […]
(§2) After electroporation, cells were further cultured in presence of selection antibiotics, hygromycin B, to generate stably transfected polyclonal cell pools. […] Final assay conditions were determined for the selected pools. […]
60 μL of cells (20,000/well) were added to a sterile 384-well plate. […] The reaction was stopped by addition of 20 μL of NaOH (1 M final conc.) and the absorbance of pNP was measured at 405 nm.

[2] = tested on: TNFα release from LPS-stimulated THP-1 cells (iRhom2/ADAM17-dependent); experiment: Primary screen (Example 1a): LPS-stimulated TNFα release from THP-1 cells, HTRF; details: Homo sapiens, LPS 100 ng/mL, 3 h, normalized against 50 μM Batimastat, read-out: Primary Screen XC50 TNFα
Protocol: (§3) Two separate screens to identify novel small molecule inhibitors of iRhom2/ADAM17 activity were developed. […] Therefore, the primary screen for small molecule inhibitors of iRhom2/ADAM17 was a screen for inhibitors that blocked the release of TNFα from LPS-stimulated THP-1 human myeloid cells, a process that depends on iRhom2 and ADAM17. […]
THP-1 cells were plated in 384 or 1,536 wells and transferred on the ultra-high throughput screening (uHTS) platform Mark III, and TNFα shedding was initiated by LPS stimulation of THP-1 cells. The extent of released TNFα was detected with the corresponding HTRF antibodies labeled with europium cryptate (donor) and d2 (acceptor). […]
7.5 nL compound and controls in DMSO [10 μM in assay; 0.25% DMSO in 3 μL Assay] were dissolved in 2 μL cell suspension [2.4E6/mL; 4800 cells/well; culture w/o PenStrep], pre-incubated at 37° C., 5% CO2, for 15 min with 1 μL LPS [100 ng/mL in 3 μL assay]. […] After an incubation at room temperature for 2 h or longer, the HTRF readout was performed. […]

[3] = tested on: PMA-stimulated KL2 release from HEK-293 cells (iRhom2/ADAM17 selective substrate); experiment: Secondary screen (Example 3a): PMA-stimulated KL2 release from HEK-293 cells, AP readout; details: Homo sapiens, HEK293, HEK-293 cells expressing KL2-AP, PMA 500 ng/mL, 2 h, read-out: Secondary Screen XC50 KL2
Excerpt: as §3, §1, §2
60 μL of cells (40,000/well) were added to a sterile 384-well plate. […] The reaction was stopped by addition of 20 μL of NaOH (1 M final conc.) and the absorbance of pNP was measured at 405 nm.

Row | Structure (SMILES) | IC50 [1] [µM] | IC50 [2] [µM] | IC50 [3] [µM]
1 | CCC(=O)NCCc1c(/C=C2/C(=O)NC(=O)N(c3ccc(C)cc3C)C2=O)[nH]c2ccccc12 [Compound 1] | 12.6 | < 0.802 | > 128
2 | CCOC(=O)c1ccc(Nc2nc3nonc3n3nnnc23)cc1 [Compound 2] | 9.91 | < 0.802 | > 128
